The text below walks through data of patent US20150157568A1, “Treatment of Spasticity with Intrathecal Dantrolene” (Allergan, Inc., priority 2013, published 2015).

This assay concerns awake spastic rats. In words: Spastic rat model (EMG activity during ankle dorsiflexion after spinal cord ischemia). In kind it is in vivo, Sprague-Dawley rats. As for the experimental part: FIG. 2 describes the rat spasticity model. (A,B) Electromyogram (EMG) responses (recorded from the gastrocnemius muscle) from an awake, but restrained normal and representative spastic rat when the ankle is rotated at velocity of (40°/3 sec) using a computer-controlled ankle rotational device. The presence of spasticity is identified by the appearance of burst EMG activity (active EMG). (C) To calculate the percent of inhibition of spastic muscle activity by a test agent during ankle dorsiflexion, animals were anaesthetized with isoflurane at the end of the experiment and the magnitude of active EMG during ankle dorsiflexion measured under isoflurane anaesthesia is then used as the maximum possible effect and is defined in each spastic animal. All drug treatment data generated after treatment are then normalized in using the maximum effect seen under isoflurane anaesthesia.
Animal: Male Sprague-Dawley rats (approximately 350 gram body weight) were used in the assay. The rats were housed at room temperature (65-82° F.) and relative humidity within the range between 30 to 70%. The room will be illuminated with fluorescent lighting on a daily 12 hour light/dark cycle. All animals will have free access to dry food. Municipal water will be freely available.
Spasticity development and measurement: Rats were exposed to transient spinal cord ischemia by aortic balloon occlusion for 10-12 minutes. Animals with fully developed spasticity will be selected at 4-8 weeks after ischemic injury and prepared for spasticity measurement. Presence of spasticity will be defined by increased peripheral muscle resistance measured during computer-controlled ankle dorsiflexion and correlative changes in EMG (electromyography) activity measured in gastrocnemius muscle (see FIG. 2).
An increased EMG activity induced by ankle dorsiflexion is a consistent and reliable measure of spasticity. Before administration of dantrolene, baseline EMG measurements were conducted. Animals with identified spasticity were then assigned to the experimental groups to be treated with dantrolene or vehicle through intraperitoneal and intrathecal routes.
Intraperitoneal dosing: Three different doses (5, 15, 50 mg/kg) of dantrolene and vehicle were injected intraperitoneally (6 rats per treatment/dose). After dantrolene administration, correlative changes in EMG were recorded at 15, 30, 60, 90, and 120 minutes following intraperitoneal injection. Changes in baseline EMG activity and ankle-rotation evoked EMG activity were then analyzed and the efficacy of treatment on spasticity calculated.
Intrathecal dosing: Animals with identified spasticity were implanted intrathecally with a fine plastic (e.g., PE-10) catheter for bolus drug delivery. Two to three days after intrathecal catheter implantation, the baseline spasticity response was measured and animals were then injected IT with dantrolene (250 μg, 6 rats) and spasticity response was measured for 2 hrs. In control animals (6 rats) vehicle was injected only.

Setting [1] is: intraperitoneal (IP), 50 mg/kg, single injection, awake spastic rats.

Consider `FC(F)OC(Cl)C(F)(F)F` (stereo not drawn) [Isoflurane], for which the “effect on spastic activity (positive control, maximal anti-spastic effect)” value (isoflurane anesthesia at the end of the experiment, defined as 0%) was “virtually eliminated all spastic activity”.
Take `O=C1CN(/N=C/c2ccc(-c3ccc([N+](=O)[O-])cc3)o2)C(O)=N1` [dantrolene]: the “effect of systemic administration on spastic activity” value (intraperitoneal (IP) injection, 5, 15, 50 mg/kg, awake spastic rats) was “reduces spastic activity in the awake spastic rats in a dose dependent manner”. Where the note is “intraperitoneal (IP), 50 mg/kg, single injection, highest dose tested, awake spastic rats”, the “spastic activity, % of the pre-treatment level” value is “about 30%”. Moreover, under setting [1], the “duration of reduction of spastic activity” value is recorded as “at least 2 hours” and the “reduction of spastic activity” value came out at 70%. Further, the “anti-spastic effect of intrathecal administration” value (intrathecal (IT), single 250 μg bolus injection, awake spastic rats (n=6), at least as robust as 50 mg/kg systemic) is “potent anti-spastic effect”.
